From ChEMBL document CHEMBL1201862, “PubChem BioAssay data set” (2004)
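Exposure lasted 48 hours, with cells grown in 96-well plates and compounds tested at five concentrations. Here, GI50 denotes the concentration required for 50% inhibition of growth.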 Active and inactive are the calls of the source. No stated cut-off is given here; in the data, active = GI50 up to about 1.1 µM and inactive = higher.

Experiments:
Test in all cases: growth of human tumour cells (NCI), 48 h
[1] = test system: 786-0
[2] = test system: A549
[3] = test system: ACHN
[4] = test system: BT-549
[5] = test system: CCRF-CEM
[6] = test system: COLO 205
[7] = test system: HL-60
[8] = test system: HOP-92
[9] = test system: MDA-MB-435
[10] = test system: MOLT-4
[11] = test system: NCI-H226
[12] = test system: NCI-H23
[13] = test system: OVCAR-5
[14] = test system: PC-3
[15] = test system: SF-268
[16] = test system: SF-295
[17] = test system: SK-MEL-28
[18] = test system: SN12C
[19] = test system: T47D
[20] = test system: UO-31

| Compound | GI50 [1] | GI50 [2] | GI50 [3] | GI50 [4] | GI50 [5] | GI50 [6] | GI50 [7] | GI50 [8] | GI50 [9] | GI50 [10] | GI50 [11] | GI50 [12] | GI50 [13] | GI50 [14] | GI50 [15] | GI50 [16] | GI50 [17] | GI50 [18] | GI50 [19] | GI50 [20] |
| --- | --- | --- | --- | --- | --- | --- | --- | --- | --- | --- | --- | --- | --- | --- | --- | --- | --- | --- | --- | --- |
| COc1ccc2c(-c3csc(-c4c[nH]c5ccccc45)n3)c[nH]c2c1 | 5.53 µM (inactive) | 4.98 µM (inactive) | 5.48 µM (inactive) | 11.8 µM (inactive) | 4.36 µM (inactive) | 6.59 µM (inactive) | 4.66 µM (inactive) | 7.46 µM (inactive) | 13.8 µM (inactive) | 3.86 µM (inactive) | 9.4 µM (inactive) | 11.6 µM (inactive) | 7.8 µM (inactive) | 4.7 µM (inactive) | 4.14 µM (inactive) | 9.64 µM (inactive) | 14.6 µM (inactive) | 7.57 µM (inactive) | 6.32 µM (inactive) | 5.9 µM (inactive) |
| C[C@H](CCC(=O)NN)[C@H]1CC[C@H]2[C@@H]3CC[C@@H]4C[C@H](O)CC[C@]4(C)[C@H]3CC[C@]12C | 36.4 µM (inactive) | 54.1 µM (inactive) | 54.8 µM (inactive) | 57.8 µM (inactive) | 12.3 µM (inactive) | 31.6 µM (inactive) | 8.53 µM (inactive) | > 86.5 µM (inactive) | 44.2 µM (inactive) | 10.4 µM (inactive) | > 74.6 µM (inactive) | 41.2 µM (inactive) | > 88.3 µM (inactive) | 44.8 µM (inactive) | 65.3 µM (inactive) | > 68.2 µM (inactive) | > 74.8 µM (inactive) | 55.7 µM (inactive) | 24.8 µM (inactive) | 51.9 µM (inactive) |
| COCC1OC(OC2OCC3OC4(OCC(O)(C(C)OC)C5OCOC54)OC3C2OC)C(OC)C(O)C1OC1OC(C)C(OC)C(OC2OC(C)C3OC4(CC(O)C(OC5CC(OC6CC(C)([N+](=O)[O-])C(OC)C(C)O6)C(OC(=O)c6c(C)c(Cl)c(O)c(Cl)c6OC)C(C)O5)C(C)O4)OC3(C)C2O)C1O (stereo not given) | > 100 µM (inactive) | > 100 µM (inactive) | > 100 µM (inactive) | > 100 µM (inactive) | > 100 µM (inactive) | > 100 µM (inactive) | > 100 µM (inactive) | > 100 µM (inactive) | > 100 µM (inactive) | > 100 µM (inactive) | > 100 µM (inactive) | > 100 µM (inactive) | > 100 µM (inactive) | > 100 µM (inactive) | > 100 µM (inactive) | > 100 µM (inactive) | > 100 µM (inactive) | > 100 µM (inactive) | > 100 µM (inactive) | > 100 µM (inactive) |
| C=C(Cl)/C(=C/Cl)CCC(Br)C(C)(C)Cl.C=C(Cl)/C(=C\Cl)CCC(Br)C(C)(C)Cl (stereo not given) | > 10 µM (inactive) | > 10 µM (inactive) | > 10 µM (inactive) | > 10 µM (inactive) | 2.66 µM (inactive) | > 10 µM (inactive) | 3.56 µM (inactive) | > 10 µM (inactive) | > 10 µM (inactive) | 3.1 µM (inactive) | > 10 µM (inactive) | > 10 µM (inactive) | > 10 µM (inactive) | > 10 µM (inactive) | > 10 µM (inactive) | > 10 µM (inactive) | > 10 µM (inactive) | > 10 µM (inactive) | > 10 µM (inactive) | > 10 µM (inactive) |
| COC1CCC(O)C(/C=C/[N+](=O)[O-])C1 (stereo not given) | 1.7 µM (inactive) | 10.6 µM (inactive) | 15.7 µM (inactive) | 2.58 µM (inactive) | 2.69 µM (inactive) | 2.28 µM (inactive) | 1.8 µM (inactive) | 12.5 µM (inactive) | 1.65 µM (inactive) | 2.18 µM (inactive) | 2.07 µM (inactive) | 3.91 µM (inactive) | 9.1 µM (inactive) | 2.06 µM (inactive) | 3.37 µM (inactive) | 10.6 µM (inactive) | 13.4 µM (inactive) | 2.8 µM (inactive) | 11.3 µM (inactive) | 1.81 µM (inactive) |
| COc1cc2c(cc1OC)C13CCN4CC5=CCOC6CC(=O)N2C1C6C5CC43O (stereo not given) | > 100 µM (inactive) | > 100 µM (inactive) | > 100 µM (inactive) | > 100 µM (inactive) | > 100 µM (inactive) | > 100 µM (inactive) | > 100 µM (inactive) | > 100 µM (inactive) | > 100 µM (inactive) | > 100 µM (inactive) | > 100 µM (inactive) | > 100 µM (inactive) | > 100 µM (inactive) | > 100 µM (inactive) | > 100 µM (inactive) | > 100 µM (inactive) | > 100 µM (inactive) | > 100 µM (inactive) | > 100 µM (inactive) | > 100 µM (inactive) |
| CCCCCCCCCCCCCCCC(=O)OCC(C[As](=O)(O)O)OC(=O)CCCCCCCCCCCCCCC (stereo not given) | > 84.5 µM (inactive) | > 100 µM (inactive) | > 71.6 µM (inactive) | > 100 µM (inactive) | > 100 µM (inactive) | > 100 µM (inactive) | > 100 µM (inactive) | > 72.6 µM (inactive) | > 100 µM (inactive) | > 100 µM (inactive) | > 74.8 µM (inactive) | > 100 µM (inactive) | > 100 µM (inactive) | > 100 µM (inactive) | 68.9 µM (inactive) | > 82.6 µM (inactive) | > 100 µM (inactive) | > 74.5 µM (inactive) | > 100 µM (inactive) | > 100 µM (inactive) |
| Cc1cc(C)c2c(=N)c3ccccc3n(CCCCCCn3c4ccccc4c(=N)c4c(C)cc(C)nc43)c2n1 | 0.224 µM (active) | 1.63 µM (inactive) | 1.55 µM (inactive) | 1.56 µM (inactive) | 0.266 µM (active) | 1.57 µM (inactive) | 0.28 µM (active) | 1.58 µM (inactive) | 1.77 µM (inactive) | 0.627 µM (active) | 1.66 µM (inactive) | 1.4 µM (inactive) | 1.84 µM (inactive) | 1.28 µM (inactive) | 1.56 µM (inactive) | 1.36 µM (inactive) | 1.28 µM (inactive) | 1.5 µM (inactive) | 1.92 µM (inactive) | 1.56 µM (inactive) |
| CC1OC(OC2CC(O)(C(=O)CO)Cc3c(O)c4c(c(O)c32)C(=O)c2ccccc2C4=O)CC(N)C1O (stereo not given) | < 0.01 µM (active) | < 0.01 µM (active) | < 0.01 µM (active) | 0.171 µM (active) | < 0.01 µM (active) | < 0.017 µM (active) | < 0.01 µM (active) | < 0.0338 µM (active) | 0.156 µM (active) | < 0.01 µM (active) | < 0.01 µM (active) | 0.0162 µM (active) | 0.0242 µM (active) | 0.0301 µM (active) | < 0.0163 µM (active) | < 0.01 µM (active) | 0.0573 µM (active) | < 0.0112 µM (active) | < 0.01 µM (active) | 0.0232 µM (active) |
| c1csc(-c2csc(-c3ccsc3)c2)c1 | > 100 µM (inactive) | 99.5 µM (inactive) | > 100 µM (inactive) | > 100 µM (inactive) | > 100 µM (inactive) | > 100 µM (inactive) | > 74.6 µM (inactive) | > 100 µM (inactive) | > 100 µM (inactive) | 62.4 µM (inactive) | > 57.5 µM (inactive) | > 68.2 µM (inactive) | > 100 µM (inactive) | > 100 µM (inactive) | > 100 µM (inactive) | > 100 µM (inactive) | > 100 µM (inactive) | > 100 µM (inactive) | > 45.1 µM (inactive) | > 70.1 µM (inactive) |
